# From US7169573B2, “Method for monitoring coagulability and hypercoagulable states” (Oklahoma Medical Research Foundation, priority 2001, dated 2007)
# “And” between values parts separate entries of the source, which are not always exact repeats. Equal values may be shown once.
# Tests used:
# [1] = test system: soluble endothelial protein C receptor (sEPCR); test: Plasma soluble EPCR level by monoclonal antibody-based ELISA in subjects on anticoagulant therapy; type: in vivo, human; settings: for [sEPCR]: individual patients taking Sintrom, plasma, ELISA
# Experimental: Soluble EPCR is generated in vitro by metalloproteinase activity induced by thrombin and some inflammatory mediators (Xu et al., 2000). Thus, the inventors chose to determine whether soluble EPCR levels reflected in vivo thrombin generation. To evaluate this, the soluble EPCR levels were determined in patients on oral anticoagulant therapy and compared with soluble EPCR levels found in a normal, apparently healthy adult population (FIGS. 1A and 1B). These samples were obtained from collaborators in France (Dr. M. Grimeaux, Serbio/Diagnostica Stago). The soluble EPCR levels are assayed using a monoclonal antibody-based enzyme-linked immunosorbent assay (ELISA) (U.S. Pat. No. 5,804,392, incorporated by reference herein). […] Previscan is a major oral anticoagulant used in France and Germany. […] The half-life for factor VII is only 3–5 hours, whereas that for prothrombin is 60–100 hrs.
# To further evaluate the relationship between plasma sEPCR levels and anticoagulant therapy, samples were obtained from a normal adult population and from patients on intravenous unfractionated heparin therapy (FIG. 3). The data shown in FIGS. 3, 4A, 4B and 5 were obtained from samples contributed by a collaborator in Italy (Dr. Armando D'Angelo, Scientific Institute H. S. Rafeale, Milan, Italy).
# Plasma was stored at −80° C. for determination of sEPCR levels by ELISA.
# [2] = test system: prothrombin fragment 1+2 (F1+2)
# Experimental: Blood was taken before the start of anticoagulation and sEPCR levels were determined by ELISA over the course of their therapy. There were 3 patients with atrial fibrillation and one patient each with dilative cardiomyopathy, mitral valve disease, atrial fibrillation+stroke, and deep vein thrombosis (DVT).
# [3] = cited from earlier work
# [4] = cited from earlier work; remark: listed apart in the source
# INR = INR (prothrombin time based) in patients on oral anticoagulant; type: in vivo, human; settings: individual patients taking Sintrom, one plasma sample per line
molecule,measurement,setting,value
4-hydroxycoumarin [Warfarin],plasma sEPCR levels during Warfarin treatment period,"[1]; 6 normal adult subjects, Warfarin 7 days, FIG. 4A",declined
same,lag time before sEPCR levels declined after initiation of Warfarin,[1]; normal adult subjects,24 to 48 h
same,time after cessation of Warfarin until sEPCR levels began to increase,[1]; normal adult subjects,24 to 48 h
same,"F1+2 level, % of initial values","[2]; healthy subjects, day 5 of Warfarin, P<0.05",39%
same,F1+2 levels after initiation of Warfarin therapy,"[2]; seven patients starting oral anticoagulation, FIG. 7",declined in most of the patients
same,time to maximal blood levels,"[3]; healthy volunteers, absorbed from the GI tract",90 min
same,bioavailability,[3]; in vivo,excellent
same,onset,[3]; in vivo,2 to 7 days
same,"intracranial bleeding, share of patients",[4]; during each year of therapy,0.1–0.5%
same,"major bleeding, share of people treated",[4]; during each year of therapy,1–8%
same,"Warfarin-induced skin necrosis, share of patients",[4]; in vivo,0.01–0.1%
O=C1c2ccccc2C(=O)C1c1ccc(F)cc1 [Previscan],half-life (in words),[3]; in vivo,long half-life (days)
CC(=O)CC(c1ccc([N+](=O)[O-])cc1)c1c(O)c2ccccc2oc1=O (centres unmarked) [Sintrom],INR,INR,2.0 and 2.6 and 3.3 and 3.6
same,INR,INR; listed as SINTROM,2.6 (2×) and 2.7 (2×) and 2.8 and 3.1 (2×) and 3.3 (2×) and 3.4 and 3.5 and 3.6 and 4.5 and >5.0 (4×) and 1.5 and 1.8 and 1.9 and 2.0
same,[sEPCR],[1],369 ng/mL and 357 ng/mL and 198 ng/mL and 293 ng/mL
same,[sEPCR],[1]; listed as SINTROM,357 ng/ml and 131 ng/ml and 92 ng/ml and 127 ng/ml and 59 ng/ml and 61 ng/ml (2×) and 198 ng/ml and 171 ng/ml and 164 ng/ml and 56 ng/ml (2×) and 293 ng/ml and 172 ng/ml and 54 ng/ml and 94 ng/ml and 140 ng/ml and 135 ng/ml and 167 ng/ml and 369 ng/ml and 63 ng/ml
same,half-life,[3]; Sintrom,~8.5 h
